What was measured:
[1] = system: HeLa S3 human epithelioid cervical carcinoma cells; experiment: Cellular uptake of fluorescein-labeled dendrimers, quantified by flow cytometry (FACS); format: cell-based; conditions: for Percentage of Cellular Uptake: 4 hours after treatment, 37° C., average of two experiments; for saturation of uptake into cells: with increasing transporter concentration; for delivery to HeLa S3 cells: qualitative
Description: HeLa S3, human epithelioid cervical carcinoma cells of approximately 50% confluency were treated with concentrations varying from 250 nM to 50 μM of each of the molecular transporters 10, 11, 12, 13, and 41 at 37° C. The molecular transporters were directly added to the media (Dulbecco's modified eagle medium containing 10% fetal bovine serum and 1× antibiotic-antimycotic), and the delivery to the cells was visualized by microscopy.
Quantification of the uptake of the molecular transporter into the cells was performed by flow cytometry 4 hours after treatment. Adherent cells, grown on 6 well plates, were displaced with trypsin, after which the cells were washed with phosphate-buffered saline (PBS). The final cell pellet was collected by centrifugation and resuspended in PBS to a concentration of approximately 1×10^6 cells/mL. A minimum of 20,000 cell events were counted and analyzed using the FACSCalibur and CellQuest brand software (BD Biosciences, San Jose, Calif.).

HeLa S3 cells = experiment: Sulphorhodamine B (SRB) cytotoxicity assay; format: cell-based, human; conditions: 4 hour treatment, concentrations up to 50 μM
Description: The cells were treated with varying concentrations (250 nM to 50 μM) of compound 12 for 4 hours at 37° C. The cells were fixed with trichloroacetic acid and were then subsequently stained with SRB dye. The cells were washed with water, and the SRB-bound complexes were solubilized in Tris buffer. The absorbance at 572 nm was measured in each sample.

[2] = Solubility in water observed on isolation; format: physicochemical; conditions: isolated salt

In the case of `Cl.Cl.Cl.N=C(N)NCCNC(=O)CCOCC(COCCC(=O)NCCNC(=N)N)(COCCC(=O)NCCNC(=N)N)NC(=O)CCNC(=S)Nc1ccc(-c2c3ccc(=O)cc-3oc3cc(O)ccc23)c(C(=O)O)c1` (stereo not shown) [Compound 10], the “Percentage of Cellular Uptake” value ([1]; 250 nM) was 1.845%, the “Percentage of Cellular Uptake” value ([1]; 500 nM) was 2.89% and the “Percentage of Cellular Uptake” value ([1]; 1 μM) was 2.85%. For the same compound, the “Percentage of Cellular Uptake” value ([1]; 5 μM) was 12.44%, the “Percentage of Cellular Uptake” value ([1]; 10 μM) was 27.91% and the “Percentage of Cellular Uptake” value ([1]; 25 μM) was 59.15%. The “Percentage of Cellular Uptake” value ([1]; 50 μM) was 92.07% and the “saturation of uptake into cells” value [1] was “approximately 100%”.
For `Cl.Cl.Cl.Cl.Cl.Cl.N=C(N)NCCNC(=O)CCOCC(COCCC(=O)NCCNC(=N)N)(COCCC(=O)NCCNC(=N)N)NC(=O)CCNC(=O)c1cc(C(=O)NCCNC(=O)CCNC(=S)Nc2ccc(-c3c4ccc(=O)cc-4oc4cc(O)ccc34)c(C(=O)O)c2)cc(C(=O)NCCC(=O)NC(COCCC(=O)NCCNC(=N)N)(COCCC(=O)NCCNC(=N)N)COCCC(=O)NCCNC(=N)N)c1` (stereo not shown) [Compound 11], the “delivery to HeLa S3 cells” value [1] was “excellent delivery” and the “saturation of uptake into cells” value [1] was “approximately 100%”.
In the case of `Cl.Cl.Cl.Cl.Cl.Cl.Cl.Cl.Cl.N=C(N)NCCNC(=O)CCOCC(COCCC(=O)NCCNC(=N)N)(COCCC(=O)NCCNC(=N)N)NC(=O)CCNC(=O)CCOCC(COCCC(=O)NCCC(=O)NC(COCCC(=O)NCCNC(=N)N)(COCCC(=O)NCCNC(=N)N)COCCC(=O)NCCNC(=N)N)(COCCC(=O)NCCC(=O)NC(COCCC(=O)NCCNC(=N)N)(COCCC(=O)NCCNC(=N)N)COCCC(=O)NCCNC(=N)N)NC(=O)CCNC(=S)Nc1ccc(-c2c3ccc(=O)cc-3oc3cc(O)ccc23)c(C(=O)O)c1` (stereo not shown) [Compound 12], the cell lysis (HeLa S3 cells) was “did not cause cell lysis”, the cytotoxic effect (HeLa S3 cells) was “no cytotoxic effect” and the “delivery to HeLa S3 cells” value [1] was “excellent delivery”. For the same compound, the “saturation of uptake into cells” value [1] was “approximately 100%”.
For `Cl.Cl.Cl.Cl.Cl.Cl.Cl.Cl.Cl.Cl.Cl.Cl.N=C(N)NCCNC(=O)CCOCC(COCCC(=O)NCCNC(=N)N)(COCCC(=O)NCCNC(=N)N)NC(=O)CCNC(=O)CCOCC(COCCC(=O)NCCC(=O)NC(COCCC(=O)NCCNC(=N)N)(COCCC(=O)NCCNC(=N)N)COCCC(=O)NCCNC(=N)N)NC(=O)CCNC(=O)CCOCC(COCCC(=O)NCCC(=O)NC(COCCC(=O)NCCC(=O)NC(COCCC(=O)NCCNC(=N)N)(COCCC(=O)NCCNC(=N)N)COCCC(=O)NCCNC(=N)N)COCCC(=O)NCCC(=O)NC(COCCC(=O)NCCNC(=N)N)(COCCC(=O)NCCNC(=N)N)COCCC(=O)NCCNC(=N)N)NC(=O)CCNC(=S)Nc1ccc(-c2c3ccc(=O)cc-3oc3cc(O)ccc23)c(C(=O)O)c1` (stereo not shown) [Compound 13], the “delivery to HeLa S3 cells” value [1] was “excellent delivery” and the “saturation of uptake into cells” value [1] was “approximately 100%”.
For `N=C(N)NCCNC(=O)CCCCCNC(=O)CCNC(=S)Nc1ccc(-c2c3ccc(=O)cc-3oc3cc(O)ccc23)c(C(=O)O)c1` [Compound 41, 5-(3-{2-[5-(2-Guanidinoethylcarbamoyl)-pentylcarbamoyl]-ethyl}-thioureido)-2-(6-hydroxy-3-oxo-3H-xanthen-9-yl)-benzoic acid], the “Percentage of Cellular Uptake” value ([1]; 250 nM) was 1.95%, the “Percentage of Cellular Uptake” value ([1]; 500 nM) was 2.065% and the “Percentage of Cellular Uptake” value ([1]; 1 μM) was 3.025%. The “Percentage of Cellular Uptake” value ([1]; 5 μM) was 16.07%, the “Percentage of Cellular Uptake” value ([1]; 10 μM) was 32.4% and the “Percentage of Cellular Uptake” value ([1]; 25 μM) was 67.47%. For the same compound, the “Percentage of Cellular Uptake” value ([1]; 50 μM) was 86.71%, the “saturation of uptake into cells” value [1] was “approximately 100%” and the “solubility in H2O” value [2] was “barely soluble in H2O”.

From patent US20080221020A1, “Dendrimers as Molecular Translocators” (THE REGENTS OF THE UNIVERSITY OF CALIFORNIA, priority 2002, published 2008)
